Data as given in patent US7923204B2, “Forward mutation assay based on 5-fluorouracil resistance” (priority 2003, dated 2011).
Structures can show the parent of a compound that is named as a salt. Where two headings read alike, the source gives them in different places. Marks after values point to notes of the source that are not given here.

Assays:
chromosome aberrations = settings: cited from earlier work
Salmonella = settings: cited from earlier work
[1] = test system: sister chromatid exchange; settings: cited from earlier work
FU100 [2] = settings: for response in the 5-FU Assay (in words): text and figure legend (FIG. 6), with or without S9
Description: Briefly, in order to practice the disclosed mutation assay one-ml aliquots of exponentially growing bacteria are exposed to the test agent for two hours in the presence and absence of a metabolic activation system, such as a mammalian (i.e., rat, hamster or human) liver homogenate (S9-fraction or liver microsomal enzymes). The aliquots are then diluted, allowed to grow for 3 hours, and assessed for treatment-related toxicity/inhibition by optical density. The cultures are subsequently diluted a second time and grown overnight to permit full recovery from toxicity and to allow expression of the FU^R phenotype. Samples of the cultures are then plated in 384-well microtiter dishes in the presence of 2 μg/ml 5-FU and the pH-sensitive indicator bromcresol purple. Three days later positive wells containing FU^R colonies are detected by their yellow color and enumerated. Treated cultures are then compared to control plates to determine genotoxic activity.
For each mutation experiment, two frozen 1-ml aliquots of FU100 were quickly thawed in a 37° C. water bath, pelleted by centrifugation, washed to remove the DMSO, and suspended in 35 mL of MinE medium. The culture was shaken for approximately 1 hour at 37° C. until the optical density at 600 nm (OD600) reached the target density of 0.3. A 16-ml aliquot of culture was added to each of two 50-ml tubes containing 3.6 ml of a NADPH-generating system (5.6 mM glucose-6-phosphate, 4.5 mM NADP+, 5 mM sucrose, 110 mM Na2HPO4, 37 mM KCl, and 9 mM MgCl2) and either 0.4 ml rat liver S-9 or an equal volume of sodium phosphate buffer. Aliquots of these mixtures were distributed into three 12-well cluster dishes (one for exposure with S-9, one for exposure without S-9, one for controls with and without S-9), and exposed to test compounds as 1-ml aliquots for 2 hour as outlined in FIG. 1.
Following treatment, the 1-ml aliquots were transferred into 9 ml of warm MinE medium in a 50 ml tube and incubated at 37° C. on a rotary wheel for 3 hours. Next, 20 ml of medium was added to each culture tube and 0.25 ml aliquots were transferred to a 96-well plate for OD600 measurements to assess toxicity (OD Day 1). […] Bulk cultures were then incubated overnight in the dark at 30° C. to permit recovery from toxicity and to allow time for the test cells to express the FU^R phenotype.
The next day, OD600 was again assessed to adjust cell number plated on 5-FU plates (OD Day 2; 100 μl of the culture diluted with 150 μl MinE medium for OD600 measurements). For plating, a 35 μl aliquot of each culture was added to 31.4 mL of MinE medium with 2 μg/ml of 5-FU and 10 μg/ml of bromcresol purple. The mixture was then dispersed into a 384-well plate (75 μl/well) and placed at 37° C. for 3 days in a humidified incubator.
The data obtained for both survival (OD day 1), relative number of cells plated (OD day 2), and number of positive wells were imported into an Excel template.
Table 8 summarizes the criteria for positive result in 5-FU assay using the FU100 tester strain described and claimed herein. […] A positive compound was defined when two or more doses met the aforementioned criteria.

FU100 [3] = test system: FU100
[4] = NTP Results Report 12 Aug. 2002 or cited reference (footnotes f, g, i, j)
[5] = NTP Results Report 12 Aug. 2002
[6] = in the presence of S9 activation (+), FU100, 2 h exposure
[7] = in the presence of S9 activation (+), lowest dose tested giving a positive response
[8] = without S9 activation (−), FU100, 2 h exposure
[9] = without S9 activation (−), lowest dose tested giving a positive response
[10] = in the presence of S9 activation (+), approximate, first dose with greater than 50% survival by optical density on Day 1
[11] = without S9 activation (−), approximate, first dose with greater than 50% survival by optical density on Day 1

SMILES	NTP Results: SA = Salmonella (Salmonella; [4])	NTP Results: SC = sister chromatid exchange [1, 5]	Results (5-FU assay) (FU100 [2]; [6])	Lowest Positive Dose (FU100 [2]; [7]) [µg/mL]	Results (5-FU assay) (FU100 [2]; [8])	Lowest Positive Dose (FU100 [2]; [9]) [µg/mL]	LD50 (FU100 [3]; [10]) [µg/mL]	LD50 (FU100 [3]; [11]) [µg/mL]	further results
CC(O)CCl (stereo not shown) [1-Chloro-2-propanol]									NTP Results: CA = chromosome aberrations (chromosome aberrations): (SA+, CA+, SC+); NTP Results: SA = Salmonella (Salmonella): (SA+, CA+, SC+); NTP Results: SC = sister chromatid exchange [1]: (SA+, CA+, SC+); Lowest Positive Dose (FU100 [2]): 2800 µg/mL; Results (5-FU assay) (FU100 [2]): Pos^w; Results (5-FU assay) (FU100 [2]; s9): Neg
Nc1ccc2cc3ccccc3cc2c1 [2-Aminoanthracene]	+	+	Pos	0.2	Pos	0.6	>2	>10	
O=[N+]([O-])c1ccc2c(c1)Cc1ccccc1-2 [2-Nitrofluorene]			Pos	0.6	Pos	0.02	>2	>1	
O=[N+]([O-])c1cc[n+]([O-])c2ccccc12 [4-Nitroquinoline N-oxide]							>0.5	>0.5	
Cl.Nc1c2ccccc2nc2ccccc12.O [9-Aminoacridine•HCl•H2O]	(SA+, CA+, SC+)	(SA+, CA+, SC+)	Pos	16	Pos	16	>9	>9	NTP Results: CA = chromosome aberrations (chromosome aberrations; [5]): (SA+, CA+, SC+); response in the 5-FU Assay (in words) (FU100 [2]): positive compounds in toxic concentrations
Cc1ccc2cc3c(ccc4ccccc43)c3c2c1CC3 [20-Methylcholanthrene]	+	+	Pos	0.2	Pos	5	>50	>50	NTP Results: CA = chromosome aberrations (chromosome aberrations; [5]): −
O=Cc1ccccc1 [Benzaldehyde]			Neg		Neg		>150	>150	
c1ccc2c(c1)cc1ccc3cccc4ccc2c1c34 [Benzo[a]pyrene]							>20	>20	
OCc1ccccc1 [Benzyl Alcohol]	−	+^w	Neg		Neg		>500	>900	NTP Results: CA = chromosome aberrations (chromosome aberrations; [5]): +
O=c1ccc2ccccc2o1 [Coumarin]			Pos	50	Neg		>150	>900	
CC(C)(OOC(C)(C)c1ccccc1)c1ccccc1 [Dicumyl peroxide]	(SA−)		Neg		Neg		>5000	>5000	
C[S+](C)[O-] [Dimethyl Sulfoxide]	(SA−, CA−, SC−)	(SA−, CA−, SC−)	Neg		Neg		>5000	>5000	NTP Results: CA = chromosome aberrations (chromosome aberrations; [5]): (SA−, CA−, SC−)
COc1ccc2nc3cc(Cl)ccc3c(NCCCNCCCl)c2c1 [ICR-191]	(SA+)		Pos	3.2	Pos	0.2	>10	>3	response in the 5-FU Assay (in words) (FU100 [2]): positive compounds in non-toxic concentrations
C[C@H](CCC(=O)O)[C@H]1CC[C@H]2[C@@H]3CC[C@@H]4C[C@H](O)CC[C@]4(C)[C@H]3CC[C@]12C [Lithocholic Acid]			Neg		Neg		>2000	>2000	
COS(C)(=O)=O [Methyl Methanesulfonate]	(SA+)		Pos	10	Pos	0.6	>100	>100	plating efficiency of FU^R mutants in treated culture at the end of day 1 (FU100 [2]; before overnight grow back was introduced): significantly suppressed; response in the 5-FU Assay (in words) (FU100 [2]): positive compounds in non-toxic concentrations
CN(N=O)C(N)=O [N-Nitroso-N-methylurea]	(SA+)		Pos	5.0	Pos	5.0	>90	>90	
CN(C)N=O [N-Nitrosodimethylamine]	(SA+, CA+, SC+)	(SA+, CA+, SC+)	Pos	360	Neg		>2000	>2000	NTP Results: CA = chromosome aberrations (chromosome aberrations; [5]): (SA+, CA+, SC+)
CCC1(c2ccccc2)C(=O)NC(=O)NC1=O [Phenobarbital]			Pos^w	1500	Pos^w	2800	>500	>500	
Nc1ccc2cc3ccc(N)cc3nc2c1 [Proflavine HCl]	(SA+)		Pos	0.1	Pos^w	16	>10	>10	
O=C1NS(=O)(=O)c2ccccc21 [Saccharin]									NTP Results: SA = Salmonella (Salmonella): (SA−); Results (5-FU assay) (FU100 [2]): Neg; LD50 (FU100 [3]; Salmonella typhimurium): >5000 µg/mL
CCCCCCCCCCCCOS(=O)(=O)[O-].[Na+] [Sodium Dodecyl Sulfate]			Neg		Neg		>35	>20	
CC/C(=C(\c1ccccc1)c1ccc(OCCN(C)C)cc1)c1ccccc1 [Tamoxifen]							>15	>3	Results (5-FU assay) (FU100 [2]): Neg
CN(C)[C@@H]1C(O)=C(C(N)=O)C(=O)[C@@]2(O)C(O)=C3C(=O)c4c(O)cccc4[C@@](C)(O)[C@H]3C[C@@H]12 [Tetracycline HCl]	−	−					>0.1	>0.1	NTP Results: CA = chromosome aberrations (chromosome aberrations; [5]): −; Results (5-FU assay) (FU100 [2]): Neg
Cc1cccc(Nc2cc(Cl)nc(SCC(=O)O)n2)c1C [Wyeth 14,643]	(SA−)		Neg		Neg		>900	>900	
O=[N+]([O-])c1ccc(O)cc1 [p-Nitrophenol]	−	−	Neg		Neg		>50	>50	NTP Results: CA = chromosome aberrations (chromosome aberrations; [5]): +
